Legend:
FGFR35 [1] = target: T1, FGFR35 (Homo sapiens, UniProt P22607); test: FGFR35 (cellular assay), proliferation of Ba/F3-TEL-FGFR35 cells; assay type: cell-based; design: fused on or other part: N-terminal part of TEL (ETV6), which acts as the oligomerising partner; it is fused to the part of FGFR3 that carries the kinase; P41212 (Transcription factor ETV6); conditions: 48 hours, read-out: IC50 for the FGFR35 cellular assay
Experimental: Compounds of the invention are tested for their ability to inhibit transformed Ba/F3-TEL-FGFR35 cells proliferation, which is depended on FGFR35 cellular kinase activity. Ba/F3-TEL-FGFR35 are cultured up to 800,000 cells/mL in suspension, with RPMI 1640 supplemented with 10% fetal bovine serum as the culture medium. Cells are dispensed into 384-well format plate at 5000 cell/well in 50 μL culture medium. Compounds of the invention are dissolved and diluted in dimethylsulfoxide (DMSO). Twelve points 1:3 serial dilutions are made into DMSO to create concentrations gradient ranging typically from 10 mM to 0.05 μM. Cells are added with 50 nL of diluted compounds and incubated for 48 hours in cell culture incubator. AlamarBlue® (TREK Diagnostic Systems), which can be used to monitor the reducing environment created by proliferating cells, are added to cells at final concentration of 10%. After additional four hours of incubation in a 37° C. cell culture incubator, fluorescence signals from reduced AlamarBlue® (Excitation at 530 nm, Emission at 580 nm) are quantified on Analyst GT (Molecular Devices Corp.). IC50 values are calculated by linear regression analysis of the percentage inhibition of each compound at 12 concentrations.
Target sequence in this assay (P22607 472-761 limits assumed, change not shown): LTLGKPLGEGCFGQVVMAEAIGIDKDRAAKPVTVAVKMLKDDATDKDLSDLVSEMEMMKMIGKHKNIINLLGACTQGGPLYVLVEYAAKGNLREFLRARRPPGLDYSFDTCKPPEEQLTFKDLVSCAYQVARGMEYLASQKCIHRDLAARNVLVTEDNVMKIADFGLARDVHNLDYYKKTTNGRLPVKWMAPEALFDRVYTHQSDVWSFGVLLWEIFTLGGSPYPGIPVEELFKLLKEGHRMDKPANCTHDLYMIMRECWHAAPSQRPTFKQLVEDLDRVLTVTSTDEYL

FGFR35 [2] = target: T1, FGFR35; test: Upstate KinaseProfiler radio-enzymatic filter binding assay; assay type: biochemical; design: purchased Upstate; conditions: read-out: percentage inhibition of FGFR35
Experimental: Compounds of the invention are assessed for their ability to inhibit individual members of a panel of kinases (a partial, non-limiting list of kinases includes: Abl, BCR-Abl, BMX, FGFR35, Lck, JNK1, JNK2, CSK, RAF, MKK6 and P38). The compounds are tested in duplicates at a final concentration of 10 μM following this generic protocol. Note that the kinase buffer composition and the substrates vary for the different kinases included in the “Upstate KinaseProfiler™” panel. Kinase buffer (2.5 μL, 10×—containing MnCl2 when required), active kinase (0.001-0.01 Units; 2.5 μL), specific or Poly(Glu4-Tyr) peptide (5-500 μM or 0.01 mg/ml) in kinase buffer and […] are mixed in an eppendorf on ice. A Mg/ATP mix (10 μL; 67.5 (or 33.75) mM MgCl2, 450 (or 225) μM ATP and 1 μCi/μl [γ-^32P]-ATP (3000 Ci/mmol)) is added and the reaction is incubated at about 30° C. for about 10 minutes. […] The assay squares are transferred to a scintillation vial, 5 ml scintillation cocktail are added and ^32P incorporation (cpm) to the peptide substrate is quantified with a Beckman scintillation counter. Percentage inhibition is calculated for each reaction.
Target sequence in this assay (P22607 23-806): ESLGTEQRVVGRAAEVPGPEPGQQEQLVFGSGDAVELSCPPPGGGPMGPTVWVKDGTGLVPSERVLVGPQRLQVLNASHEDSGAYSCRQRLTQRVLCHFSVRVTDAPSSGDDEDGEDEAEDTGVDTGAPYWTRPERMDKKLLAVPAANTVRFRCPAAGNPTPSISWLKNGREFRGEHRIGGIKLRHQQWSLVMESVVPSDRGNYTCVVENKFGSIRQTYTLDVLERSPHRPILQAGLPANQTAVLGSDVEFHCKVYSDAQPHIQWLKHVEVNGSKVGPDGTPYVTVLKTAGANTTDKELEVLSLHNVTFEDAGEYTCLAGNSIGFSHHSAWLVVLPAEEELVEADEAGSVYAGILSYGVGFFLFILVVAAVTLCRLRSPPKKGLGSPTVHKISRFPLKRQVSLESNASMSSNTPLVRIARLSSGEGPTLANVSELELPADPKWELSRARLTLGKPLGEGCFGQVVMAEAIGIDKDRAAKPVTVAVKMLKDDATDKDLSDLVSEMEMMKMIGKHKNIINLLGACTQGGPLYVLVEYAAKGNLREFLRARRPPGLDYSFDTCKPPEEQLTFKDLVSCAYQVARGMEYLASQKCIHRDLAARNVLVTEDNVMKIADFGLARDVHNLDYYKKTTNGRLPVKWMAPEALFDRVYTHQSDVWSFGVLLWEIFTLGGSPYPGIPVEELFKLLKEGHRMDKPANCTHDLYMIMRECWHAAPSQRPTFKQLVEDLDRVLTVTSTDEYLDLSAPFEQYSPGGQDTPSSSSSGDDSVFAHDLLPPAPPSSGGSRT

MKK6 = target: T2, MKK6 (Homo sapiens, UniProt P52564); test: as above; assay type: biochemical; conditions: read-out: percentage inhibition of MKK6
T2 construct: purchased Upstate (KinaseProfiler panel)
Experimental: (§1) Compounds of the invention are assessed for their ability to inhibit individual members of a panel of kinases (a partial, non-limiting list of kinases includes: Abl, BCR-Abl, BMX, FGFR35, Lck, JNK1, JNK2, CSK, RAF, MKK6 and P38). The compounds are tested in duplicates at a final concentration of 10 μM following this generic protocol. Note that the kinase buffer composition and the substrates vary for the different kinases included in the “Upstate KinaseProfiler™” panel. Kinase buffer (2.5 μL, 10×—containing MnCl2 when required), active kinase (0.001-0.01 Units; 2.5 μL), specific or Poly(Glu4-Tyr) peptide (5-500 μM or 0.01 mg/ml) in kinase buffer and kinase buffer (50 μM; 5 μL) are mixed in an eppendorf on ice. A Mg/ATP mix (10 μL; 67.5 (or 33.75) mM MgCl2, 450 (or 225) μM ATP and 1 μCi/μl [γ-^32P]-ATP (3000 Ci/mmol)) is added and the reaction is incubated at about 30° C. for about 10 minutes. The reaction mixture is spotted (20 μL) onto a 2 cm×2 cm P81 (phosphocellulose, for positively charged peptide substrates) or Whatman No. 1 (for Poly (Glu4-Tyr) peptide substrate) paper square. The assay squares are washed 4 times, for 5 minutes each, with 0.75% phosphoric acid and washed once with acetone for 5 minutes. The assay squares are transferred to a scintillation vial, 5 ml scintillation cocktail are added and ^32P incorporation (cpm) to the peptide substrate is quantified with a Beckman scintillation counter. Percentage inhibition is calculated for each reaction.

JNK2α2 = target: T3, JNK2α2 (Homo sapiens, UniProt P45984); test: as above; assay type: biochemical; conditions: read-out: percentage inhibition of JNK2α2
T3 construct: purchased Upstate (KinaseProfiler panel)
Experimental: as §1

c-RAF = target: T4, c-RAF (Homo sapiens, UniProt P04049); test: as above; assay type: biochemical; conditions: read-out: percentage inhibition of c-RAF
T4 construct: purchased Upstate (KinaseProfiler panel)
Experimental: as §1

ROS = target: T5, ROS (Homo sapiens, UniProt P08922); test: as above; assay type: biochemical; conditions: read-out: percentage inhibition of ROS
T5 construct: purchased Upstate (KinaseProfiler panel)
Experimental: as §1

c-SRC = target: T6, c-SRC (Homo sapiens, UniProt P12931); test: as above; assay type: biochemical; conditions: read-out: percentage inhibition of c-SRC
T6 construct: purchased Upstate (KinaseProfiler panel)
Experimental: as §1

SAPK2α = target: T7, SAPK2α (Homo sapiens, UniProt Q16539); test: as above; assay type: biochemical; conditions: read-out: percentage inhibition of SAPK2α
T7 construct: purchased Upstate (KinaseProfiler panel)
Experimental: as §1

lck = target: T8, lck (Homo sapiens, UniProt P06239); test: as above; assay type: biochemical; conditions: read-out: percentage inhibition of lck
T8 construct: purchased Upstate (KinaseProfiler panel)
Experimental: as §1

Tie2 = target: T9, Tie2 (Homo sapiens, UniProt Q02763); test: as above; assay type: biochemical; conditions: read-out: percentage inhibition of Tie2
T9 construct: purchased Upstate (KinaseProfiler panel)
Experimental: as §1

CSK = target: T10, CSK (Homo sapiens, UniProt P41240); test: as above; assay type: biochemical; conditions: read-out: percentage inhibition of CSK
T10 construct: purchased Upstate (KinaseProfiler panel)
Experimental: as §1

TrkB = target: T11, TrkB (Homo sapiens, UniProt Q16620); test: as above; assay type: biochemical; conditions: read-out: percentage inhibition of TrkB
T11 construct: purchased Upstate (KinaseProfiler panel)
Experimental: as §1

SAPK2β = target: T12, SAPK2β (Homo sapiens, UniProt Q15759); test: as above; assay type: biochemical; conditions: read-out: percentage inhibition of SAPK2β
T12 construct: purchased Upstate (KinaseProfiler panel)
Experimental: as §1

p70S6K = target: T13, p70S6K (Homo sapiens, UniProt P23443); test: as above; assay type: biochemical; conditions: read-out: percentage inhibition of p70S6K
T13 construct: purchased Upstate (KinaseProfiler panel)
Experimental: as §1

wild-type Abl = target: T14, wild-type Abl (Homo sapiens, UniProt P00519); test: as above; assay type: biochemical; conditions: read-out: percentage inhibition of wild-type Abl
T14 construct: purchased Upstate (KinaseProfiler panel)
Experimental: as §1

T13 sequence (P23443 whole entry): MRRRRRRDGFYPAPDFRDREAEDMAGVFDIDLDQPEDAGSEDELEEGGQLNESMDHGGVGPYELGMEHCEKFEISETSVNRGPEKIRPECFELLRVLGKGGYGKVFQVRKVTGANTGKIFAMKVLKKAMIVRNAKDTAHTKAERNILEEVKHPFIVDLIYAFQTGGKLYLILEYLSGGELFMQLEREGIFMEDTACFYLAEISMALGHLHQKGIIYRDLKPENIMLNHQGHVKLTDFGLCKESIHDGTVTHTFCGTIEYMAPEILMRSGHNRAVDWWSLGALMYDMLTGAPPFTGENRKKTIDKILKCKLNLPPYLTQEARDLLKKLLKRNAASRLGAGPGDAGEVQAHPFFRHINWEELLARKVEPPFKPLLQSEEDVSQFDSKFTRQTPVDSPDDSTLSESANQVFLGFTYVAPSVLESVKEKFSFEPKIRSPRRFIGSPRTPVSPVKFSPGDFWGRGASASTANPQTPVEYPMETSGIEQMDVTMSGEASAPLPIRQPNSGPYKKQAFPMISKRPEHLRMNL
T11 sequence (Q16620 32-822): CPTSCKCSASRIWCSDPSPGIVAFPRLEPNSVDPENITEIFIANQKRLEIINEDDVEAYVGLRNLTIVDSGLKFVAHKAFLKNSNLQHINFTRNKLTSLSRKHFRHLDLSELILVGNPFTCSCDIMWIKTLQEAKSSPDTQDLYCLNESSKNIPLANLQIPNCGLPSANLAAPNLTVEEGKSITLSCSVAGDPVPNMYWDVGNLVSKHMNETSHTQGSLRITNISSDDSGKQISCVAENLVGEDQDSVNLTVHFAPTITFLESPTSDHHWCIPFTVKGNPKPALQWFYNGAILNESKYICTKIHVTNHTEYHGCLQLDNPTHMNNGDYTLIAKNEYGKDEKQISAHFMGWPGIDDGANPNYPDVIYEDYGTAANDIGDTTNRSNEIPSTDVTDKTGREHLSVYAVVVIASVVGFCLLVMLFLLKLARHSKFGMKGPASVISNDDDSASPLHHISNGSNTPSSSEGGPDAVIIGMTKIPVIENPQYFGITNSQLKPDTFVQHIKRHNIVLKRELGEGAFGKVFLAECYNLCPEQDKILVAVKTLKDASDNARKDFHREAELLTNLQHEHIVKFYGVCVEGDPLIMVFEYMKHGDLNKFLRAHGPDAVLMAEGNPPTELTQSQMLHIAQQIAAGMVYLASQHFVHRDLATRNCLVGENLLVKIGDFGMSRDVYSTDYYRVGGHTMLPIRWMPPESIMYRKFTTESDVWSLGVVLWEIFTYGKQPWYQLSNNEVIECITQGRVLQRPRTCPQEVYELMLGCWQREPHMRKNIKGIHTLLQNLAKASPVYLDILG
T7 sequence (Q16539 whole entry): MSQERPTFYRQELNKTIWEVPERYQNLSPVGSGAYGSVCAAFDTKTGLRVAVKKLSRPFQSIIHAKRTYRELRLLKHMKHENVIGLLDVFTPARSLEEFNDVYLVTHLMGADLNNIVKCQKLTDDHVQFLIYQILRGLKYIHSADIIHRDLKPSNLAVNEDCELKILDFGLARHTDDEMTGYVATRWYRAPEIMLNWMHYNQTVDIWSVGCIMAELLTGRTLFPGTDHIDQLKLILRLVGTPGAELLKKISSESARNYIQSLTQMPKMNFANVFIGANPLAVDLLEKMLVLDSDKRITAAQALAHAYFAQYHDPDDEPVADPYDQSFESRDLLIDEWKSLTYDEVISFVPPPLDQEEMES
T12 sequence (Q15759 whole entry): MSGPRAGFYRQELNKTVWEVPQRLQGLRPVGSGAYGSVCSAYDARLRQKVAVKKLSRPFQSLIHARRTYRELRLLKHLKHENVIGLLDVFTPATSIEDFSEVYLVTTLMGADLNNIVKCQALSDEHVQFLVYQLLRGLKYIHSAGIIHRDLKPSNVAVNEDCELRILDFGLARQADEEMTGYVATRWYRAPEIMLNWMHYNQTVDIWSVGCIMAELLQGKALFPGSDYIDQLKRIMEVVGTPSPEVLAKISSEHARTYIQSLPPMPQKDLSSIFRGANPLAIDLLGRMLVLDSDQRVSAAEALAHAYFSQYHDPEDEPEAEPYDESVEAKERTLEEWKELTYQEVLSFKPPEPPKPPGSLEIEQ
T3 sequence (P45984 whole entry): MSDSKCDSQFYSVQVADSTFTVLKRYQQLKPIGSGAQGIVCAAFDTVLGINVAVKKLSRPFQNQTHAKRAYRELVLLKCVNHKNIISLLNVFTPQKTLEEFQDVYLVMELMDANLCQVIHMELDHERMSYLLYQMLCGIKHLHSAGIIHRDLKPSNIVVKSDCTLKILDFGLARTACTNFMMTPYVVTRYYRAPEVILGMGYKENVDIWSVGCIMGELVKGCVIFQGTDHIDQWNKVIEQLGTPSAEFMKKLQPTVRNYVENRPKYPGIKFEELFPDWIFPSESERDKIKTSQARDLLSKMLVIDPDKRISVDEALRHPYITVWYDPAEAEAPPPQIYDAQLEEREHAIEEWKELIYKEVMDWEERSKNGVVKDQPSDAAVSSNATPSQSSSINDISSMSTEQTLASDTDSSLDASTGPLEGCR
T6 sequence (P12931 whole entry, species assumed): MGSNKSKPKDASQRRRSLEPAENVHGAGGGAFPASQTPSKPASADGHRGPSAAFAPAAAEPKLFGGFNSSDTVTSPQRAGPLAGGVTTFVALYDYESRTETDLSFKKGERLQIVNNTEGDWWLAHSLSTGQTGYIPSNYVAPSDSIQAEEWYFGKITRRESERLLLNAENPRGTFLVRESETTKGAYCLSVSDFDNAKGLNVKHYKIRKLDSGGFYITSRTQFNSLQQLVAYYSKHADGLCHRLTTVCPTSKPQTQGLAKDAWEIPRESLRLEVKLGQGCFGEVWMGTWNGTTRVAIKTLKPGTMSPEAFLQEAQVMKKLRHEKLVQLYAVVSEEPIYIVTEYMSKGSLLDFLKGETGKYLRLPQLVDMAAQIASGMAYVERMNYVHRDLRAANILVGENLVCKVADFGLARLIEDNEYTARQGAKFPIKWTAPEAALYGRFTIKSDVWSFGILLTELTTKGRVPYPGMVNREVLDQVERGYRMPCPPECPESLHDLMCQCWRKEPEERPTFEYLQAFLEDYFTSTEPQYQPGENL
T8 sequence (P06239 whole entry, species assumed): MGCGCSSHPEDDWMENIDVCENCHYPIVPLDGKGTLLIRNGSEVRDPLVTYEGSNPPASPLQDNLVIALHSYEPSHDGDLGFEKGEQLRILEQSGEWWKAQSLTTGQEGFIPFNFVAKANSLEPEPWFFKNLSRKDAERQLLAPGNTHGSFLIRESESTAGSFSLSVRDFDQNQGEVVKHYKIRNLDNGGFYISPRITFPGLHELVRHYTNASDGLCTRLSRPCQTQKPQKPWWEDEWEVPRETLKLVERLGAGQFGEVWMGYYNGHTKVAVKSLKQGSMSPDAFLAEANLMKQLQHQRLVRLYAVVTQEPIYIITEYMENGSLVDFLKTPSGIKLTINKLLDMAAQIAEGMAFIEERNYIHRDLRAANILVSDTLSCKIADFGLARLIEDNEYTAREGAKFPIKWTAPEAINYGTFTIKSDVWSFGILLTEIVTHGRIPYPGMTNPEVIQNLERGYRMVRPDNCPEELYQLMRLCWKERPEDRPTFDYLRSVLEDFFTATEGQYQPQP
T2 sequence (P52564 whole entry, species assumed): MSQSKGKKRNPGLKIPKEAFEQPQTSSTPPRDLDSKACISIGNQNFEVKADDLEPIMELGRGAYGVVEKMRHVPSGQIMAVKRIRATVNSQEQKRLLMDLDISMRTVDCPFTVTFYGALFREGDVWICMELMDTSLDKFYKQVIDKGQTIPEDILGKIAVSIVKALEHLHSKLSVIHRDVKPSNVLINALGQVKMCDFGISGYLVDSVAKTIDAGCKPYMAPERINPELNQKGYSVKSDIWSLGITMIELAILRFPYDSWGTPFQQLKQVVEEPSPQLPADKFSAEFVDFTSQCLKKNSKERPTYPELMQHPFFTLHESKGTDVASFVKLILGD

- GI50 (FGFR35 [1]): 15 nM
- inhibition at 10 µM (FGFR35 [2]): 99%
- inhibition at 10 µM (MKK6): 88%
- inhibition at 10 µM (JNK2α2): 93%
- inhibition at 10 µM (c-RAF): 99%
- inhibition at 10 µM (ROS): 95%
- inhibition at 10 µM (c-SRC): 100%
- inhibition at 10 µM (SAPK2α): 99%
- inhibition at 10 µM (lck): 100%
- inhibition at 10 µM (Tie2): 100%
- inhibition at 10 µM (CSK): 97%
- inhibition at 10 µM (TrkB): 99%
- inhibition at 10 µM (SAPK2β): 99%
- inhibition at 10 µM (p70S6K): 81%
- inhibition at 10 µM (wild-type Abl): 99%
Compound: Cc1ccc(NC(=O)c2cccc(C(F)(F)F)c2)cc1NC(=O)N(CCCN1CCCC1=O)c1cc(N)ncn1 [Example 215, N-(3-{3-(6-Amino-pyrimidin-4-yl)-3-[3-(2-oxo-pyrrolidin-1-yl)-propyl]-ureido}-4-methyl-phenyl)-3-trifluoromethyl-benzamide]

Source: patent publication US8552002B2 (Novartis AG, priority 2004, dated 2013)
